Experimental data reported in PubChem BioAssay AID2047 (NMMLSC, 2009).

Target: GTPase HRas (Homo sapiens) (UniProt P01112)
Assay: inhibition of fluorescent GTP binding to wild-type Ras – biochemical, pyrazoline analogs, multiplex bead flow cytometry, SAR follow-up (AID 2047)
Conditions: GST-Ras beads, Bodipy-FL-GTP binding, Ki calculated from EC50

GTPase HRas (Homo sapiens), sequence (P01112 whole entry, looked up): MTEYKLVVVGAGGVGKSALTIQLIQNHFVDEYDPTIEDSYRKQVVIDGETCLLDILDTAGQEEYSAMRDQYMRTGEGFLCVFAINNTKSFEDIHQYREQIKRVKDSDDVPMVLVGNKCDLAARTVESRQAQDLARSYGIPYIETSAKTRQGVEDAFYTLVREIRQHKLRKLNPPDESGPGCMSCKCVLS

SMILES | Ki
CN(C)c1ccc(C2CC(c3ccccc3)=NN2c2ccccc2)cc1 (stereo unspecified) | 10 nM
COc1ccc(C2=NN(c3ccccc3F)C(c3ccc(F)cc3)C2)cc1 (stereo unspecified) | 2110 nM
NS(=O)(=O)c1ccc(N2N=C(c3ccc(Cl)cc3)CC2c2ccccc2)cc1 (stereo unspecified) | 10 nM
COc1ccc(C2=NN(c3ccccc3)C(c3ccccc3C(F)(F)F)C2)cc1 (stereo unspecified) | 2770 nM

More lines, in order of falling Ki, values ahead:

Ki | SMILES
160 nM | COc1ccc(C2CC(c3ccccc3)=NN2c2ccc(Cl)c(C(=O)O)c2)cc1 (stereo unspecified)
10 nM | COc1ccc(C2CC(c3ccc(Cl)cc3)=NN2c2ccccc2)cc1OC (stereo unspecified)
